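Each compound was tested at five concentrations against cells in 96-well plates for 48 hours. At the GI50, growth is halved.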 Active and inactive are the calls of the source. No stated cut-off is given here; in the data, active = GI50 up to about 1.1 µM and inactive = higher.
Legend:
Test in all cases: inhibition of tumour cell growth, NCI panel, 48 h
NCI-H23 = system: NCI-H23
SK-MEL-28 = system: SK-MEL-28
SF-295 = system: SF-295
SK-OV-3 = system: SK-OV-3
CAKI-1 = system: CAKI-1
HOP-62 = system: HOP-62
SF-539 = system: SF-539
A549 = system: A549
SNB-75 = system: SNB-75
M14 = system: M14
COLO 205 = system: COLO 205
NCI/ADR-RES = system: NCI/ADR-RES
MDA-MB-435 = system: MDA-MB-435
SN12C = system: SN12C
Hs-578T = system: Hs-578T
K562 = system: K562
NCI-H226 = system: NCI-H226
SW-620 = system: SW-620
KM12 = system: KM12
OVCAR-4 = system: OVCAR-4
UO-31 = system: UO-31
Malme-3M = system: Malme-3M
SK-MEL-2 = system: SK-MEL-2
BT-549 = system: BT-549
SK-MEL-5 = system: SK-MEL-5
HL-60 = system: HL-60
SF-268 = system: SF-268
DU-145 = system: DU-145
U-251 = system: U-251
ACHN = system: ACHN
RPMI-8226 = system: RPMI-8226
HOP-92 = system: HOP-92
SNB-19 = system: SNB-19
PC-3 = system: PC-3
LOX IMVI = system: LOX IMVI
T47D = system: T47D
SR = system: SR
HCT-116 = system: HCT-116
MDA-MB-231 = system: MDA-MB-231
MCF7 = system: MCF7
MOLT-4 = system: MOLT-4
RXF 393 = system: RXF 393
HCT-15 = system: HCT-15
EKVX = system: EKVX
UACC-62 = system: UACC-62
HT-29 = system: HT-29
IGROV-1 = system: IGROV-1
786-0 = system: 786-0
NCI-H460 = system: NCI-H460
A498 = system: A498
OVCAR-8 = system: OVCAR-8
UACC-257 = system: UACC-257
TK-10 = system: TK-10
NCI-H522 = system: NCI-H522
OVCAR-3 = system: OVCAR-3
CCRF-CEM = system: CCRF-CEM
OVCAR-5 = system: OVCAR-5
MDA-N = system: MDA-N
HCC 2998 = system: HCC 2998

## CCOC(=O)C1=C(C)NC(=O)NC1c1coc2cc(C)cc(C)c2c1=O (centres undefined)
NCI-H23
  GI50: > 86.7 µM (inactive)
SK-MEL-28
  GI50: > 100 µM (inactive)
SF-295
  GI50: 47.6 µM (inactive)
SK-OV-3
  GI50: > 66.5 µM (inactive)
CAKI-1
  GI50: > 100 µM (inactive)
HOP-62
  GI50: 36.8 µM (inactive)
SF-539
  GI50: 75.9 µM (inactive)
A549
  GI50: 46.9 µM (inactive)
SNB-75
  GI50: 3.27 µM (inactive)
M14
  GI50: 34.7 µM (inactive)
COLO 205
  GI50: 54.6 µM (inactive)
NCI/ADR-RES
  GI50: 27.5 µM (inactive)
MDA-MB-435
  GI50: 4.5 µM (inactive)
SN12C
  GI50: 58.2 µM (inactive)
Hs-578T
  GI50: 56.2 µM (inactive)
K562
  GI50: 30.7 µM (inactive)
NCI-H226
  GI50: > 100 µM (inactive)
SW-620
  GI50: 32.1 µM (inactive)
KM12
  GI50: 30 µM (inactive)
OVCAR-4
  GI50: 55.3 µM (inactive)
UO-31
  GI50: 44 µM (inactive)
Malme-3M
  GI50: 13 µM (inactive)
SK-MEL-2
  GI50: > 43.8 µM (inactive)
BT-549
  GI50: 99.3 µM (inactive)
SK-MEL-5
  GI50: > 51.2 µM (inactive)
HL-60
  GI50: > 54.5 µM (inactive)
SF-268
  GI50: 57.5 µM (inactive)
DU-145
  GI50: > 100 µM (inactive)
U-251
  GI50: 32.1 µM (inactive)
ACHN
  GI50: > 81.3 µM (inactive)
RPMI-8226
  GI50: 41.7 µM (inactive)
HOP-92
  GI50: > 74.3 µM (inactive)
SNB-19
  GI50: 90.2 µM (inactive)
PC-3
  GI50: 48.3 µM (inactive)
LOX IMVI
  GI50: 69.2 µM (inactive)
T47D
  GI50: > 69.5 µM (inactive)
SR
  GI50: 10.2 µM (inactive)
HCT-116
  GI50: 36.9 µM (inactive)
MDA-MB-231
  GI50: > 61.5 µM (inactive)
MCF7
  GI50: 36.2 µM (inactive)
MOLT-4
  GI50: 27.5 µM (inactive)
RXF 393
  GI50: 25.4 µM (inactive)
HCT-15
  GI50: 25 µM
EKVX
  GI50: 31.6 µM (inactive)
UACC-62
  GI50: 61.5 µM (inactive)
HT-29
  GI50: 32.1 µM (inactive)
IGROV-1
  GI50: > 60.1 µM (inactive)
786-0
  GI50: 67.9 µM (inactive)
NCI-H460
  GI50: 25.9 µM (inactive)
A498
  GI50: > 100 µM (inactive)
OVCAR-8
  GI50: 64.1 µM (inactive)
UACC-257
  GI50: 40.2 µM (inactive)
TK-10
  GI50: 38.9 µM (inactive)
NCI-H522
  GI50: 1.68 µM (inactive)
OVCAR-3
  GI50: 24.5 µM (inactive)
CCRF-CEM
  GI50: 37.7 µM (inactive)
OVCAR-5
  GI50: 49 µM (inactive)

## COc1c(C)c(C/C=C(\C)CCCCO[Si](C(C)C)(C(C)C)C(C)C)c(OC)c2ccccc12
NCI-H23
  GI50: > 100 µM (inactive)
SF-295
  GI50: > 100 µM (inactive)
SK-OV-3
  GI50: > 100 µM (inactive)
CAKI-1
  GI50: > 100 µM (inactive)
HOP-62
  GI50: > 100 µM (inactive)
SF-539
  GI50: > 100 µM (inactive)
A549
  GI50: > 100 µM (inactive)
MDA-N
  GI50: > 100 µM (inactive)
SNB-75
  GI50: > 100 µM (inactive)
M14
  GI50: > 100 µM (inactive)
COLO 205
  GI50: > 100 µM (inactive)
NCI/ADR-RES
  GI50: > 100 µM (inactive)
MDA-MB-435
  GI50: > 100 µM (inactive)
SN12C
  GI50: > 100 µM (inactive)
Hs-578T
  GI50: > 100 µM (inactive)
K562
  GI50: > 100 µM (inactive)
SW-620
  GI50: > 100 µM (inactive)
KM12
  GI50: > 100 µM (inactive)
OVCAR-4
  GI50: > 100 µM (inactive)
UO-31
  GI50: > 100 µM (inactive)
SK-MEL-2
  GI50: > 100 µM (inactive)
BT-549
  GI50: > 100 µM (inactive)
SK-MEL-5
  GI50: > 100 µM (inactive)
SF-268
  GI50: > 100 µM (inactive)
DU-145
  GI50: > 100 µM (inactive)
U-251
  GI50: > 100 µM (inactive)
ACHN
  GI50: > 100 µM (inactive)
HCC 2998
  GI50: > 10 µM (inactive)
HOP-92
  GI50: > 100 µM (inactive)
SNB-19
  GI50: > 100 µM (inactive)
PC-3
  GI50: > 100 µM (inactive)
LOX IMVI
  GI50: > 100 µM (inactive)
SR
  GI50: 70.1 µM (inactive)
HCT-116
  GI50: > 100 µM (inactive)
MDA-MB-231
  GI50: > 100 µM (inactive)
MCF7
  GI50: > 100 µM (inactive)
MOLT-4
  GI50: 47.6 µM (inactive)
RXF 393
  GI50: > 100 µM (inactive)
HCT-15
  GI50: > 100 µM
EKVX
  GI50: > 100 µM (inactive)
UACC-62
  GI50: > 100 µM (inactive)
HT-29
  GI50: > 100 µM (inactive)
IGROV-1
  GI50: > 100 µM (inactive)
786-0
  GI50: > 100 µM (inactive)
NCI-H460
  GI50: > 100 µM (inactive)
OVCAR-8
  GI50: > 100 µM (inactive)
UACC-257
  GI50: > 100 µM (inactive)
TK-10
  GI50: > 100 µM (inactive)
NCI-H522
  GI50: > 100 µM (inactive)
OVCAR-3
  GI50: > 100 µM (inactive)
CCRF-CEM
  GI50: 49 µM (inactive)
OVCAR-5
  GI50: > 100 µM (inactive)
